Results published in patent US11603355B2, “Charged ion channel blockers and methods for use” (Nocion Therapeutics, Inc., priority 2019, dated 2023).
pIC50: −log10 of the molar value. Where a name gives a salt, the structure may show the parent alone.

Experiments:
[1] = PAMPA membrane permeability assay; type: in vitro ADME; conditions: permeability coefficient, pH 7.4 buffer, GIT lipid, 4 hours incubation
Outline: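 Passive diffusion across a GIT-lipid-painted artificial membrane at pH 7.4, with a 50 uM donor stock diluted from DMSO and a 4 h incubation. UV spectra of the donor, acceptor and reference plates were read, and the permeability coefficient was calculated from the AUCs, in 10^−6 cm/s.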

[2] = biological target: T1, NaV1.7 (Homo sapiens, UniProt Q15858); test: Automated patch clamp (Qube 384), internal block of NaV1.7; type: cell-based; conditions: IC50, compound in internal solution, HEK293 cells, read-out: Nav1.7 Intracellular Inhibition
T1 construct: expressed in transfected cells; host or cells: HEK293 (tetracycline-inducible)
Procedure: (§1) NaV1.7 was expressed in HEK293 cells upon induction with tetracycline. Cells were cultured in DMEM containing 10% dialyzed Fetal Bovine Serum (VWR, Radnor, Pa.), 1% Glutamax (VWR, Radnor, Pa.), 1% Penicillin-Streptomycin (VWR, Radnor, Pa.), 100 mg/L Hygromycin (Thermo Fisher Scientific, Waltham, Mass. and 5 mg/L Blasticidin (Alfa Aesar, Haverhill, Mass.). Cells were grown and maintained at 37° C. in a humidified environment containing 10% CO2 in air. Cells were detached from the culture flask for passage and harvested using 0.05% Trypsin-EDTA (Thermo Fisher Scientific, Waltham, Mass.). To induce NaV1.7, cells were induced with tetracycline (0.1-1 μg/mL, IBI Scientific, Peosta, Iowa) the day before recording.
(§2) Before experiments, cells were washed with DPBS (VWR, Radnor, Pa.), digested with Detachin (VWR Radnor, Pa.) and then triturated 10 times in CHO Serum-Free Media (VWR Radnor, Pa.) to resuspend the cells and to break apart cell aggregates. Cells were counted and the final concentration was set at 2-5 million cells per mL.
(§3) The intracellular solution contained the following: 140 mM CsF, 1 mM/5 mM EGTA/CsOH, 10 mM HEPES, 10 mM NaCl, adjusted to pH 7.3 with CsOH, and osmolality to 320 with OSM solution. The external solution contained the following: 145 mM NaCl, 4 mM KCl, 1 mM MgCl2, 2 mM CaCl2), 10 mM HEPES, 10 mM Glucose, adjusted to pH 7.4 with CsOH and osmolality to 305 with OSM solution. The OSM solution was a normal Ringer solution containing (in mM) NaCl 155, HEPES 10, sucrose, KCl 3.5, CaCl2) 1.5, MgCl2 1 adjusted to pH 7.4 with NaOH. All chemicals are from Sigma-Aldrich, St. Louis, Mo. In order to test the degree of internal block by test compounds, the compounds were dissolved in internal solution at the indicated test concentration. […] In order to test the degree of external block by test compounds the compounds were dissolved in external solution at the indicated test concentration.
(§4) Automated Patch Clamps were performed on Qube 384 (Sophion Bioscience, Woburn Mass.) with multihole Qchips at a temperature setting of 22 degrees. The whole cells configuration was formed with default Qube seal and break-in parameter. The membrane potential was held at −100 mV before the voltage protocol began. Two voltage protocols were followed.
(§5) Step 1: Cells were held at −100 mV with a depolarized pulse to −20 mV for 10 ms, the interval was set at 5 s. Currents were corrected by default leak subtraction from every pulse. The duration was set at 5 mins.
(§6) Step 2: Cells were held at −100 mV with a depolarized pulse to −20 mV for 10 ms. The frequency was 5 Hz. Currents were corrected by leak subtraction calculated before step 2. The duration was set at 4 mins.
After Step 2, the Qchip was removed from the recording chamber. The internal solution was changed with solutions containing test compounds. Qchips were held at −100 mV without pulsing after being replaced in the recording chamber. The total solution switching time was 8 minutes. After the internal solution exchange, Cells were recorded and step 2 for repeated for 10 minutes.
Data analysis was performed by Sophion Analyzer. Cells were filtered with minimum 50 MOhm seal resistance and minimum 5 nA starting current. The rundown of the currents was corrected with control cells (Non-Drug). The remaining was calculated by averaging last 3 points in the end of experiments. The base line was calculated as the average of last 3 points of Step 2.
IC50 curves were plotted with DR-plots/Hill function (a dose-response plot with a Hill fit).
Representative examples of the invention were tested for intracellular inhibition of NaV 1.7 in the automated patch clamp assay. Activity Range is reported as IC50: “++++” (<0.3 μM), “+++” (0.3-1 μM), “++” (1-3 μM) or “+” (3-10 μM).

[3] = biological target: T1, NaV1.7; test: Automated patch clamp (Qube 384), external block of NaV1.7; type: cell-based; conditions: IC50, compound in external solution, HEK293 cells, read-out: Nav1.7 Extracellular Inhibition
Procedure: as §1, §2, §3, §4, §5, §6
After Step 2, the external solution was changed with solutions containing test compounds. Qchips were held at −100 mV without pulsing. The total solution switching time was 8 minutes. After the external solution exchange, cells were recorded using the same procedure as step 2 for 10 minutes.
Data analysis was performed by Sophion Analyzer. Data were corrected with control cells (Non-Drug). The IC50 data were plotted with DR-plots/Hill function (a dose-response plot with a Hill fit). Representative examples of the invention were tested for extracellular inhibition of NaV 1.7 in the automated patch clamp assay. Activity Range is reported as IC50: “++++” ([…], “+++” (1-3 μM), “++” ([…]) or “+” (>10 μM). The results are presented below.

T1 sequence (Q15858 whole entry): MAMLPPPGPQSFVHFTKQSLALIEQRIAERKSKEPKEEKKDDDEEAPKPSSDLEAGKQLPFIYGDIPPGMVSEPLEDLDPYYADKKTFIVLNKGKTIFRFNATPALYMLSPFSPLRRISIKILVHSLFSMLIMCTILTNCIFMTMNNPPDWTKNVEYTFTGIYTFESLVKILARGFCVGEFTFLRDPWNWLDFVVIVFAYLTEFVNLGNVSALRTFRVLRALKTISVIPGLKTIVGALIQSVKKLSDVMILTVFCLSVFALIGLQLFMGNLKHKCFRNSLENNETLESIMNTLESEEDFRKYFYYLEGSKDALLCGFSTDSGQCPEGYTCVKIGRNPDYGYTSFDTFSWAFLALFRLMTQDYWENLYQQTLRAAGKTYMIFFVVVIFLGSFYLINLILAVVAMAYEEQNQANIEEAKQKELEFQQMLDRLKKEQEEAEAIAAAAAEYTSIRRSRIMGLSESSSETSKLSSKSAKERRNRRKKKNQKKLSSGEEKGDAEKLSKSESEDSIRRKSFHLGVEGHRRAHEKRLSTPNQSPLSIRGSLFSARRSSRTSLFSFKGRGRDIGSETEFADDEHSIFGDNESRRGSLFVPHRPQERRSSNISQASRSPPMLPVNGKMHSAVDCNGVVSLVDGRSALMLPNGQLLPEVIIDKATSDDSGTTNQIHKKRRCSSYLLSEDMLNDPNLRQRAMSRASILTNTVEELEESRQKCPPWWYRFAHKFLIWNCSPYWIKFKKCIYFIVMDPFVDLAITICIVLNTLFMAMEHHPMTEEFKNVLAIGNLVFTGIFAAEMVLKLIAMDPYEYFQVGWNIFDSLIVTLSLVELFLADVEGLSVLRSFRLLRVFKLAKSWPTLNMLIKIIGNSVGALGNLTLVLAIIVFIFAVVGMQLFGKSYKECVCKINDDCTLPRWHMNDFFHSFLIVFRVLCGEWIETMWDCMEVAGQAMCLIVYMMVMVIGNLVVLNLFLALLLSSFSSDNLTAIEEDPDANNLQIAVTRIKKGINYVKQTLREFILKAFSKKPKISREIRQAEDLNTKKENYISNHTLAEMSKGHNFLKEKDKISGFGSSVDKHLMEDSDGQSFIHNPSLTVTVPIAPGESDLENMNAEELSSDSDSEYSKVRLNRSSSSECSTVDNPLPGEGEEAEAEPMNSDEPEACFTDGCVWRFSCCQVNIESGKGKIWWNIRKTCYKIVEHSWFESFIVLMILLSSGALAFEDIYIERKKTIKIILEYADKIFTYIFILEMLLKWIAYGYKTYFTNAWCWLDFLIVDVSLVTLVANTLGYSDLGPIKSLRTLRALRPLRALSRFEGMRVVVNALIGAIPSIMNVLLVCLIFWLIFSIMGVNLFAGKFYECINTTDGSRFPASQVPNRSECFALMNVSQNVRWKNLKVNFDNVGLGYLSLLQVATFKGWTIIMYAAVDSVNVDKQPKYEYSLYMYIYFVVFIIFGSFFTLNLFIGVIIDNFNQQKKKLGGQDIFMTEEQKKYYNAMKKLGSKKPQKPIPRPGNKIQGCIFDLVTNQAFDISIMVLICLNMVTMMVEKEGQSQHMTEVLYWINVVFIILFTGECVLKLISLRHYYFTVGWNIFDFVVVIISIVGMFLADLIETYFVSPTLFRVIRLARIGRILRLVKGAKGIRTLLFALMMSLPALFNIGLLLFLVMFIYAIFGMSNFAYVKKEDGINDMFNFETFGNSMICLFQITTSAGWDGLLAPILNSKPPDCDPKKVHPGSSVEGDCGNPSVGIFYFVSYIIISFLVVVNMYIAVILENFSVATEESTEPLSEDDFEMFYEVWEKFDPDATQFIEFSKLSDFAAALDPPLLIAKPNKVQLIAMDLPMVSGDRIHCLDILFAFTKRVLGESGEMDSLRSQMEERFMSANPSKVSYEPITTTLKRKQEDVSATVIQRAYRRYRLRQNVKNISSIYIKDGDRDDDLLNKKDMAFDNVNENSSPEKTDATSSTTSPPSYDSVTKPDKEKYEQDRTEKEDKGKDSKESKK

Compound: Cc1cccc(C(C)C)c1NC(=O)C[N+]1(Cc2ccccc2)CCCCCC1.[Br-] [Compound 74A]
- PAMPA (10^−6 cm/s) [1]: + (“+” (<0.1 10^−6 cm/s))
- pIC50 [2]: 6.00 to 6.52

Compound: Cc1cccc(-c2ccccc2)c1NC(=O)C[N+]1(Cc2ccccc2)CCCCCC1.[Br-] [Compound 76A]
- PAMPA (10^−6 cm/s) [1]: + (“+” (<0.1 10^−6 cm/s))
- pIC50 [2]: 5.52 to 6.00

Compound: Cc1cccc(C)c1NC(=O)C[N+]1(Cc2ccccc2)CCCC(C(=O)OC(C)C)C1 (mixture of isomers) [Compound 46A, 1-benzyl-1-(2-((2,6-dimethylphenyl)amino)-2-oxoethyl)-3-(isopropoxycarbonyl) piperidin-1-ium trifluoroacetate salt]
- PAMPA (10^−6 cm/s) [1]: + (“+” (<0.1 10^−6 cm/s))
- pIC50 [3]: 5.00 to 5.52
- pIC50 [2]: 6.00 to 6.52

Compound: CCNC(=O)C1CCC[N+](CC(=O)Nc2c(C)cccc2C)(Cc2ccccc2)C1.[Br-] (stereo not shown) [Compound 54A, 1-benzyl-1-(2-((2,6-dimethylphenyl)amino)-2-oxoethyl)-3-(ethylcarbamoyl) piperidin-1-ium bromide]
- PAMPA (10^−6 cm/s) [1]: + (“+” (<0.1 10^−6 cm/s))
- pIC50 [3]: < 5.00
- pIC50 [2]: 6.00 to 6.52

Compound: COC(=O)c1ccc(C[N+]2(CC(=O)Nc3c(C)cccc3C)CCCCC2)cc1.[Br-] [Compound 36A, 1-(2-((2,6-dimethylphenyl)amino)-2-oxoethyl)-1-(4-(methoxycarbonyl)benzyl) piperidin-1-ium bromide]
- PAMPA (10^−6 cm/s) [1]: + (“+” (<0.1 10^−6 cm/s))
- pIC50 [3]: < 5.00
- pIC50 [2]: 5.00 to 5.52

Compound: CCC(=O)Oc1cccc(C)c1NC(=O)C[N+]1(Cc2ccccc2)CCCCCC1.[Br-] [Compound 80A, 1-benzyl-1-(2-((2-methyl-6-(propionyloxy)phenyl)amino)-2-oxoethyl) azepan-1-ium bromide]
- PAMPA (10^−6 cm/s) [1]: + (“+” (<0.1 10^−6 cm/s))
- pIC50 [3]: < 5.00
- pIC50 [2]: 6.00 to 6.52

Compound: COc1cccc(C)c1NC(=O)C[N+]1(Cc2ccccc2)CCCCCC1 [Compound 71A]
- PAMPA (10^−6 cm/s) [1]: + (“+” (<0.1 10^−6 cm/s))
- pIC50 [2]: 6.00 to 6.52

Compound: COC(=O)c1ccccc1C[N+]1(CC(=O)Nc2c(C)cccc2C)CCCCC1.[Br-] [Compound 37A, 1-(2-((2,6-dimethylphenyl)amino)-2-oxoethyl)-1-(2-(methoxycarbonyl)benzyl) piperidin-1-ium bromide]
- PAMPA (10^−6 cm/s) [1]: + (“+” (<0.1 10^−6 cm/s))
- pIC50 [3]: < 5.00
- pIC50 [2]: 6.00 to 6.52

Compound: Cc1cccc(C)c1NC(=O)C[N+]1(Cc2ccccc2)CCCC(C(=O)N2CCCCC2)C1 (stereo not shown) [Compound 63A]
- PAMPA (10^−6 cm/s) [1]: + (“+” (<0.1 10^−6 cm/s))
- pIC50 [3]: 5.00 to 5.52
- pIC50 [2]: 6.00 to 6.52

Compound: CCCOC(=O)N1CCC[N+](CC(=O)Nc2c(C)cccc2C)(Cc2ccccc2)CC1.[Br-] (stereo not shown) [Compound 68A, 1-benzyl-1-(2-((2,6-dimethylphenyl)amino)-2-oxoethyl)-4-(propoxycarbonyl)-1,4-diazepan-1-ium bromide]
- PAMPA (10^−6 cm/s) [1]: + (“+” (<0.1 10^−6 cm/s))
- pIC50 [3]: < 5.00
- pIC50 [2]: 6.00 to 6.52

Compound: Cc1cccc(F)c1NC(=O)C[N+]1(Cc2ccccc2)CCCCCC1.[Br-] [Compound 69A, 1-benzyl-1-(2-((2-fluoro-6-methylphenyl)amino)-2-oxoethyl)azepan-1-ium bromide]
- PAMPA (10^−6 cm/s) [1]: ++ (“++” (0.1-2.0 10^−6 cm/s))
- pIC50 [3]: 5.00 to 5.52
- pIC50 [2]: 6.00 to 6.52

Compound: 1-benzyl-1-(2-((2-(dimethylcarbamoyl)-6-methylphenyl) amino)-2-oxoethyl) azepan-1-ium bromide [Compound 81A]
- PAMPA (10^−6 cm/s) [1]: + (“+” (<0.1 10^−6 cm/s))
- pIC50 [3]: < 5.00
- pIC50 [2]: 6.00 to 6.52

Compound: Cc1cccc(C)c1NC(=O)C[N+]1(Cc2ccccc2)CCCC(C(=O)N(C)C)C1.[Br-] (stereo not shown) [Compound 65A]
- PAMPA (10^−6 cm/s) [1]: + (“+” (<0.1 10^−6 cm/s))
- pIC50 [2]: 6.00 to 6.52

Compound: Cc1cccc(C)c1N1CCCC([N+]2(Cc3ccccc3)CCCC2)C1=O.[Br-] (stereo not shown) [Compound 91A, 1-benzyl-1-(1-(2,6-dimethylphenyl)-2-oxopiperidin-3-yl) pyrrolidin-1-ium bromide]
- PAMPA (10^−6 cm/s) [1]: + (“+” (<0.1 10^−6 cm/s))
- pIC50 [3]: < 5.00
- pIC50 [2]: 5.52 to 6.00

Compound: CNC(=O)C1CCC[N+](CC(=O)Nc2c(C)cccc2C)(Cc2ccccc2)C1 (stereo not shown) [Compound 55A]
- PAMPA (10^−6 cm/s) [1]: +++ (“+++” (2.0-10.010^−6 cm/s))
- pIC50 [3]: < 5.00
- pIC50 [2]: 6.00 to 6.52

Compound: [2H]c1c([2H])c([2H])c(C[N+]2(CC(=O)Nc3c(C)cccc3C)CCCCCC2)c([2H])c1[2H].[Cl-] [Compound 33A, 1-(2-((2,6-dimethylphenyl)amino)-2-oxoethyl)-1-((phenyl-d5)methyl) azepan-1-ium chloride]
- PAMPA (10^−6 cm/s) [1]: + (“+” (<0.1 10^−6 cm/s))
- pIC50 [2]: 6.00 to 6.52

Compound: CCOc1cccc(C)c1NC(=O)C[N+]1(Cc2ccccc2)CCCCCC1.[Br-] [Compound 77A]
- PAMPA (10^−6 cm/s) [1]: + (“+” (<0.1 10^−6 cm/s))
- pIC50 [3]: 5.52 to 6.00
- pIC50 [2]: 6.00 to 6.52

Compound: Cc1cccc(C)c1NC(=O)C[N+]1(Cc2ccccc2)CCCC(F)(F)C1.[Br-] (stereo not shown) [Compound 32A, 1-benzyl-1-(2-((2,6-dimethylphenyl)amino)-2-oxoethyl)-3,3-difluoropiperidin-1-ium bromide]
- PAMPA (10^−6 cm/s) [1]: + (“+” (<0.1 10^−6 cm/s))
- pIC50 [3]: < 5.00
- pIC50 [2]: 6.00 to 6.52

Compound: Cc1cccc(C#N)c1NC(=O)C[N+]1(Cc2ccccc2)CCCCCC1.[Br-] [Compound 72A]
- PAMPA (10^−6 cm/s) [1]: + (“+” (<0.1 10^−6 cm/s))
- pIC50 [2]: 6.00 to 6.52

Compound: CCCCNc1ccc(NC(=O)C[N+]2(Cc3ccccc3)CCCCCC2)cc1.O=C[O-] [Compound 41A, 1-benzyl-1-(2-((4-(butylamino)phenyl)amino)-2-oxoethyl) azepan-1-ium formate]
- PAMPA (10^−6 cm/s) [1]: + (“+” (<0.1 10^−6 cm/s))
- pIC50 [3]: < 5.00
- pIC50 [2]: 5.00 to 5.52

Compound: CCC(=O)OC1CCC[N+](CC(=O)Nc2c(C)cccc2C)(Cc2ccccc2)C1.[Br-] (stereo not shown) [Compound 52A, 1-benzyl-1-(2-((2,6-dimethylphenyl)amino)-2-oxoethyl)-3-(propionyloxy) piperidin-1-ium bromide]
- PAMPA (10^−6 cm/s) [1]: + (“+” (<0.1 10^−6 cm/s))
- pIC50 [2]: > 6.52

Compound: Cc1cccc(C)c1N(C)C(=O)C[N+]1(Cc2ccccc2)CCCCCC1 [Compound 38A, 1-benzyl-1-(2-((2,6-dimethylphenyl) (methyl)amino)-2-oxoethyl) azepan-1-ium formate]
- PAMPA (10^−6 cm/s) [1]: + (“+” (<0.1 10^−6 cm/s))
- pIC50 [3]: < 5.00
- pIC50 [2]: 5.52 to 6.00

Compound: CCCNC(=O)C1CCC[N+](CC(=O)Nc2c(C)cccc2C)(Cc2ccccc2)C1 (stereo not shown) [Compound 57A]
- PAMPA (10^−6 cm/s) [1]: + (“+” (<0.1 10^−6 cm/s))
- pIC50 [3]: 5.00 to 5.52
- pIC50 [2]: 6.00 to 6.52

Compound: Cc1cccc(C)c1NC(=O)C[N+]1(Cc2ccccc2)CCCC(C(=O)NC(C)C)C1 (stereo not shown) [Compound 56A]
- PAMPA (10^−6 cm/s) [1]: + (“+” (<0.1 10^−6 cm/s))
- pIC50 [2]: 5.52 to 6.00
